According to the supplement of paper PMC9512659:

Assays:
[1] = system: Mycobacterium tuberculosis Erdman (pMV306hsp+LuxG13); assay: log2 fractional inhibitory concentration at 90% inhibition (log2 FIC); higher = more antagonistic
Procedure: (§1)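 DiaMOND pairwise dose responses of an equipotent two-drug mixture (1.5-fold, 10-dose series) against autoluminescent M. tuberculosis Erdman in 384-well plates. Growth inhibition was read by OD600 (luminescence for dormancy) in seven media at a constant and a terminal time point; metrics are means of at least biological duplicates. Einf and AUC25 higher = more potent; GRinf lower = more potent; log2FIC negative = synergy.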

[2] = system: Mycobacterium tuberculosis Erdman (pMV306hsp+LuxG13); assay: AUC25, normalised area under the dose-response curve up to IC25 (normalised AUC (unitless)); higher = more potent
Procedure: as §1

[3] = system: Mycobacterium tuberculosis Erdman (pMV306hsp+LuxG13); assay: log2 fractional inhibitory concentration at 50% inhibition (log2 FIC); higher = more antagonistic
Procedure: as §1

[4] = system: Mycobacterium tuberculosis Erdman (pMV306hsp+LuxG13); assay: Einf, effect of the drug pair at infinite dose (maximum growth inhibition) (fraction inhibition (0-1)); higher = more potent; extreme values may be limits of the assay
Procedure: as §1

[5] = system: Mycobacterium tuberculosis Erdman (pMV306hsp+LuxG13); assay: GRinf, normalised growth-rate inhibition at infinite dose (GR value (unitless, negative = killing)); higher = less potent
Procedure: as §1

O=[N+]([O-])c1cn2c(n1)OC[C@@H](OCc1ccc(OC(F)(F)F)cc1)C2 [pretomanid] + CC(=O)NC[C@H]1CN(c2ccc(N3CCSCC3)c(F)c2)C(=O)O1 [sutezolid]
Conditions | AUC25, [2] | Einf, [4] | GRinf, [5] | log2 fractional inhibitory concentration, [1] | log2 fractional inhibitory concentration, [3]
growth medium: acidic pH 5.7, glycerol, time point: constant time point | 0.0784 | 0.879 | -0.246 | – | -0.119
growth medium: acidic pH 5.7, glycerol, time point: terminal time point | 0.0823 | 0.987 | -0.346 | -0.449 | 0.0862
growth medium: butyrate 5 mM, time point: constant time point | 0.0935 | 0.93 | 0.0242 | – | 1.07
growth medium: butyrate 5 mM, time point: terminal time point | 0.0736 | 0.97 | -0.0169 | 1.11 | 0.95
growth medium: cholesterol 0.05 mM, time point: constant time point | 0.0266 | 0.865 | -1 | – | -0.159
growth medium: cholesterol 0.2 mM (cholesterol-high), time point: constant time point | 0.0533 | 0.961 | -0.417 | 0.19 | -0.512
growth medium: cholesterol 0.2 mM (cholesterol-high), time point: terminal time point | 0.0918 | 1 | -0.326 | -0.4 | -0.395
growth medium: standard 7H9 OADC glycerol, time point: constant = terminal time point (4.2 d) | 0.0632 | 0.988 | -0.142 | -0.266 | 0.0178
growth medium: valerate 0.1%, time point: constant time point | 0.119 | 0.974 | -0.158 | – | -0.783
growth medium: valerate 0.1%, time point: terminal time point | 0.0856 | 0.978 | -0.0339 | -0.487 | -0.609

growth medium: hypoxic dormancy (butyrate + nitrate), then recovery
Conditions | AUC25, [2] | Einf, [4] | GRinf, [5] | log2 fractional inhibitory concentration, [1] | log2 fractional inhibitory concentration, [3]
time point: constant time point | 0.0715 | 0.965 | 0.332 | -0.853 | -0.376
time point: terminal time point | 0.0423 | 0.932 | 0.457 | -0.41 | -0.056

NC(=O)c1cnccn1 [pyrazinamide] + CC(=O)NC[C@H]1CN(c2ccc(N3CCSCC3)c(F)c2)C(=O)O1 [sutezolid]
Conditions | AUC25, [2] | Einf, [4] | GRinf, [5] | log2 fractional inhibitory concentration, [1] | log2 fractional inhibitory concentration, [3]
growth medium: acidic pH 5.7, glycerol, time point: constant time point | 0.128 | 0.818 | -0.0805 | – | -0.856
growth medium: acidic pH 5.7, glycerol, time point: terminal time point | 0.124 | 0.99 | -0.272 | -0.518 | -0.292
growth medium: butyrate 5 mM, time point: constant time point | 0.0878 | 0.913 | 0.0976 | – | 0.557
growth medium: butyrate 5 mM, time point: terminal time point | 0.0684 | 0.949 | 0.124 | – | –
growth medium: cholesterol 0.05 mM, time point: constant time point | 0.0696 | 1 | -1 | – | 0.194
growth medium: cholesterol 0.2 mM (cholesterol-high), time point: constant time point | 0.0979 | 0.996 | -0.785 | 0.258 | 0.242
growth medium: cholesterol 0.2 mM (cholesterol-high), time point: terminal time point | 0.105 | 1 | -0.929 | 0.207 | -0.145
growth medium: valerate 0.1%, time point: constant time point | 0.0804 | 0.884 | -0.147 | – | 0.999
growth medium: valerate 0.1%, time point: terminal time point | 0.0613 | 0.962 | -0.0671 | – | 0.436

growth medium: hypoxic dormancy (butyrate + nitrate), then recovery
Conditions | AUC25, [2] | Einf, [4] | GRinf, [5] | log2 fractional inhibitory concentration, [3]
time point: constant time point | 0.0726 | 0.984 | -0.401 | –
time point: terminal time point | 0.0286 | 0.786 | -0.5 | 0.898

NC(=O)c1cnccn1 [pyrazinamide] + CC(C)=CCC/C(C)=C/CNCCNC1C2CC3CC(C2)CC1C3 [SQ109]
Conditions | AUC25, [2] | Einf, [4] | GRinf, [5] | log2 fractional inhibitory concentration, [1] | log2 fractional inhibitory concentration, [3]
growth medium: butyrate 5 mM, time point: constant time point | 0.0786 | 0.915 | -0.00249 | – | 0.356
growth medium: butyrate 5 mM, time point: terminal time point | 0.0634 | 0.946 | 0.022 | – | 0.129
growth medium: cholesterol 0.05 mM, time point: constant time point | 0.116 | 0.894 | -0.787 | – | –
growth medium: cholesterol 0.2 mM (cholesterol-high), time point: constant time point | 0.0592 | 0.977 | -0.852 | -0.16 | 0.707
growth medium: cholesterol 0.2 mM (cholesterol-high), time point: terminal time point | 0.0665 | 0.997 | -0.789 | -0.347 | 0.668
growth medium: standard 7H9 OADC glycerol, time point: constant = terminal time point (4.2 d) | 0.032 | 0.84 | 0.242 | – | –
growth medium: valerate 0.1%, time point: constant time point | 0.0384 | 0.933 | 0.0532 | – | -0.164
growth medium: valerate 0.1%, time point: terminal time point | 0.0424 | 0.944 | 0.0196 | – | -0.462

CO[C@H]1/C=C/O[C@@]2(C)Oc3c(C)c(O)c4c(O)c(c(/C=N/N5CCN(C)CC5)c(O)c4c3C2=O)NC(=O)/C(C)=C\C=C\[C@H](C)[C@H](O)[C@@H](C)[C@@H](O)[C@@H](C)[C@H](OC(C)=O)[C@@H]1C [rifampicin] + CC(=O)NC[C@H]1CN(c2ccc(N3CCSCC3)c(F)c2)C(=O)O1 [sutezolid]
Conditions | AUC25, [2] | Einf, [4] | GRinf, [5] | log2 fractional inhibitory concentration, [1] | log2 fractional inhibitory concentration, [3]
growth medium: acidic pH 5.7, glycerol, time point: constant time point | 0.0817 | 0.853 | -0.111 | – | 0.233
growth medium: acidic pH 5.7, glycerol, time point: terminal time point | 0.076 | 0.977 | -0.205 | -0.595 | 0.315
growth medium: butyrate 5 mM, time point: constant time point | 0.0989 | 0.911 | 0.0134 | – | -0.239
growth medium: butyrate 5 mM, time point: terminal time point | 0.0783 | 0.953 | -0.0141 | -0.298 | -0.147
growth medium: cholesterol 0.2 mM (cholesterol-high), time point: constant time point | 0.0474 | 0.988 | -0.878 | -0.588 | -0.0927
growth medium: cholesterol 0.2 mM (cholesterol-high), time point: terminal time point | 0.0807 | 1 | -0.728 | -0.315 | -0.136
growth medium: standard 7H9 OADC glycerol, time point: constant = terminal time point (4.2 d) | 0.0433 | 0.969 | -0.0246 | -0.846 | -0.167
growth medium: valerate 0.1%, time point: constant time point | 0.11 | 0.962 | 0.0594 | – | 1.45
growth medium: valerate 0.1%, time point: terminal time point | 0.0701 | 0.979 | -0.0207 | 0.302 | 0.427

growth medium: hypoxic dormancy (butyrate + nitrate), then recovery
Conditions | AUC25, [2] | Einf, [4] | GRinf, [5] | log2 fractional inhibitory concentration, [1] | log2 fractional inhibitory concentration, [3]
time point: constant time point | 0.0508 | 0.978 | 0.206 | -0.578 | -0.575
time point: terminal time point | 0.06 | 0.971 | 0.237 | -0.678 | 0.255

CO[C@H]1/C=C/O[C@@]2(C)Oc3c(C)c(O)c4c(O)c(c(/C=N/N5CCN(C)CC5)c(O)c4c3C2=O)NC(=O)/C(C)=C\C=C\[C@H](C)[C@H](O)[C@@H](C)[C@@H](O)[C@@H](C)[C@H](OC(C)=O)[C@@H]1C [rifampicin] + CC(C)=CCC/C(C)=C/CNCCNC1C2CC3CC(C2)CC1C3 [SQ109]
Conditions | AUC25, [2] | Einf, [4] | GRinf, [5] | log2 fractional inhibitory concentration, [1] | log2 fractional inhibitory concentration, [3]
growth medium: butyrate 5 mM, time point: constant time point | 0.0902 | 0.914 | -0.0141 | – | 0.188
growth medium: butyrate 5 mM, time point: terminal time point | 0.0763 | 0.959 | -0.032 | -0.456 | 0.0743
growth medium: cholesterol 0.2 mM (cholesterol-high), time point: constant time point | 0.03 | 0.992 | -0.905 | -0.46 | 0.231
growth medium: cholesterol 0.2 mM (cholesterol-high), time point: terminal time point | 0.0325 | 0.999 | -0.83 | -0.383 | 0.286
growth medium: standard 7H9 OADC glycerol, time point: constant = terminal time point (4.2 d) | 0.0536 | 0.909 | 0.0752 | – | 0.0639
growth medium: valerate 0.1%, time point: constant time point | 0.0301 | 0.956 | 0.0222 | -0.583 | -0.112
growth medium: valerate 0.1%, time point: terminal time point | 0.0271 | 0.962 | 0.0133 | -0.625 | -0.128

growth medium: hypoxic dormancy (butyrate + nitrate), then recovery
Conditions | AUC25, [2] | Einf, [4] | GRinf, [5] | log2 fractional inhibitory concentration, [1] | log2 fractional inhibitory concentration, [3]
time point: constant time point | 0.0556 | 0.984 | -0.371 | -1.97 | -1.51
time point: terminal time point | 0.0342 | 0.964 | 0.12 | -1.05 | -0.863

CO[C@H]1/C=C/O[C@@]2(C)Oc3c(C)c(O)c4c(O)c(c(/C=N/N5CCN(C6CCCC6)CC5)c(O)c4c3C2=O)NC(=O)/C(C)=C\C=C\[C@H](C)[C@H](O)[C@@H](C)[C@@H](O)[C@@H](C)[C@H](OC(C)=O)[C@@H]1C [rifapentine] + CC(=O)NC[C@H]1CN(c2ccc(N3CCSCC3)c(F)c2)C(=O)O1 [sutezolid]
Conditions | AUC25, [2] | Einf, [4] | GRinf, [5] | log2 fractional inhibitory concentration, [1] | log2 fractional inhibitory concentration, [3]
growth medium: acidic pH 5.7, glycerol, time point: constant time point | 0.0889 | 0.884 | -0.224 | – | -0.201
growth medium: acidic pH 5.7, glycerol, time point: terminal time point | 0.0808 | 0.987 | -0.263 | -0.527 | 0.0996
growth medium: butyrate 5 mM, time point: constant time point | 0.0809 | 0.896 | 0.0472 | – | 0.129
growth medium: butyrate 5 mM, time point: terminal time point | 0.0542 | 0.942 | 0.0324 | -0.276 | 0.16
growth medium: cholesterol 0.05 mM, time point: constant time point | 0.0962 | 1 | -1 | 0.00059 | -0.454
growth medium: cholesterol 0.05 mM, time point: terminal time point | 0.135 | 1 | -1 | -0.142 | -1.5
growth medium: cholesterol 0.2 mM (cholesterol-high), time point: constant time point | 0.0718 | 1 | -1 | -0.285 | -0.331
growth medium: cholesterol 0.2 mM (cholesterol-high), time point: terminal time point | 0.0787 | 1 | -0.769 | -0.276 | -0.38
growth medium: standard 7H9 OADC glycerol, time point: constant = terminal time point (4.2 d) | 0.0417 | 0.983 | -0.0675 | -0.509 | -0.00234
growth medium: valerate 0.1%, time point: constant time point | 0.107 | 0.877 | -0.107 | – | -0.128
growth medium: valerate 0.1%, time point: terminal time point | 0.0657 | 0.976 | -0.0835 | 0.234 | 0.176

growth medium: hypoxic dormancy (butyrate + nitrate), then recovery
Conditions | AUC25, [2] | Einf, [4] | GRinf, [5] | log2 fractional inhibitory concentration, [1] | log2 fractional inhibitory concentration, [3]
time point: constant time point | 0.0482 | 0.974 | 0.21 | -0.514 | -0.541
time point: terminal time point | 0.0473 | 0.963 | 0.209 | 0.244 | 0.397
